Assay results: patent publication US20190083407A1, “CRYSTALLIZATION METHOD AND BIOAVAILABILITY” (priority 2015, published 2019)
Where two headings read alike, the source gives them in different places.

What was measured:
[1] = Aqueous solubility at room temperature; conditions: for Aqueous solubility, mMol/L (complex): as complex
[2] = cited from earlier work; for Mortality: solutions in capsules
[3] = FDA Summary Basis of Approval; cited from earlier work
[4] = 72 hr dog study; cited from earlier work
[5] = Rat PK study: plasma concentrations of zoledronic acid from pure zoledronic acid and complexes delivered IV, oral gavage and ID; assay type: in vivo, Sprague-Dawley Rats
Description: These studies were conducted on rats and dogs as they are suitable animal models for zoledronic acid. This can be attributed to the fact that both animals have historically been used in the safety evaluation and PK screening studies and are recommended by appropriate regulatory agencies. […] Pure zoledronic acid and zoledronic acid complexes prepared by the methods in this invention were delivered to the rats and dogs through IV or oral routes. Additional tests included ID administration in rats and administration of enteric coated capsules in dogs. All compounds delivered were well tolerated by the animals with no adverse events or physical abnormalities noticed. […] USA. Some animals have surgical catheters (jugular vein and intraduodenum) were implanted to the animals prior to the studies. […] Surgical catheters (jugular vein) were implanted prior to the studies. […] Routes of Rat Dosing: Zoledronic acid and its complex formulations were administered through IV, oral and ID. […] The dose of each rat was calculated on a per rat basis (not on an average weight of all the rats in the lot). • ii. Oral gavage administration: solid suspensions were administered. The dose of each rat was calculated on a per rat basis (not on an average weight of all the rats in the lot). […] Duodenal cannula administration: solid suspensions were administered. The dose of each rat was calculated on a per rat basis (not on an average weight of all the rats in the lot). […] Groups: Two major groups of animals were selected for the study. • Group 1 consists of rat studies. […] Group I (IV Administration): Group Members, Designated IV Doses are Listed Below: [table] Group II (oral gavage): Group designations and oral doses are listed below: […] Group III (ID Administration): Group Designations and Oral Doses are Listed Below: [table] Rat blood sample collection, handling and analysis: […] Samples were thawed on the day of analysis and the amount of zoledronic acid in the samples was quantified by analyzed by LC/MS/MS method. Rat study: […]

NCCCCC(N)C(=O)O.O.O=P(O)(O)C(O)(Cn1ccnc1)P(=O)(O)O [ZA: DL-Lysine monohydrate]
Aqueous solubility, Conc. [1]: 13.9 mg/mL
Aqueous solubility, mMol/L (complex) [1]: 31.86 mmol/L

NCCCCC(N)C(=O)O.O.O.O=P(O)(O)C(O)(Cn1ccnc1)P(=O)(O)O [ZA: L-Lysine dihydrate]
Aqueous solubility, Conc. [1]: 8.22 mg/mL
Aqueous solubility, mMol/L (complex) [1]: 18.09 mmol/L

O=P(O)(O)C(O)(Cn1ccnc1)P(=O)(O)O [Zoledronic acid, (1-hydroxy-2-imidazol-1-yl-1-phosphono-ethyl)phosphonic acid]
Mortality (dogs) ([2]; 10 mg/kg administered directly to the stomach): ⅓
Mortality (dogs) ([2]; 25 mg/kg, same formulation): 3/3
AUC 0-24 hr ([2]; dogs, 10 mg/kg administered directly to the stomach): 1254 ng·h/mL
AUC 0-24 ([2]; dogs, 25 mg/kg, same formulation): 7319 ng·h/mL
Mortality ([2]; dogs, 10 mg/kg/day, one formulation): 30%
Mortality ([2]; dogs, another formulation, 25 mg/Kg): 100%
Oral bioavailability [3]: less than 1%
AUC [4]: 2217 ng·h/mL

O=P([O-])(O)C(O)(Cn1ccnc1)P(=O)([O-])O.[Na+].[Na+] [disodium zoledronate salt]
AUC [4]: 4073 ng·h/mL

Zoledronic, nicotinamide, and water complex
Average plasma concentration of 3 rats ([5]; ID 5 mg/kg zoledronic acid equivalent, PEG 400, 8 hour): 0.00 ng/mL
Average plasma concentration of 3 rats ([5]; ID 5 mg/kg zoledronic acid equivalent, PEG 400, 24 hour): 0.00 ng/mL
Average plasma concentration of 3 rats ([5]; PO 5 mg/kg zoledronic acid equivalent, PEG 400, 24 hour): 0.00 ng/mL
